Experimental data taken from ChEMBL document CHEMBL4138265, “Synthesis of a Chloroalkene Dipeptide Isostere-Containing Peptidomimetic and Its Biological Application” (ACS Med Chem Lett, 2018).

How the values were obtained:
[1] = target: T1, Integrin alpha-V/beta-3 (Homo sapiens, UniProt P05106+P06756); experiment: Inhibition of vitronectin binding to human integrin alphaVbeta3 measured after 4 hrs by ELISA; format: protein-complex assay
[2] = Stability in human serum at 1 mM incubated for 15 mins measured up to 180 mins by RP-HPLC method; format: ADME, cell-free; conditions: 0.25 h, 1000 µM
[3] = target: T1, Integrin alpha-V/beta-3; experiment: Inhibition of vitronectin binding to integrin alphaVbeta3 in HDF pretreated for 20 mins followed by vitronectin addition measured after 40 mins by crystal violet staining based assay; format: protein-complex assay

T1 sequence (P05106 27-788 limits assumed): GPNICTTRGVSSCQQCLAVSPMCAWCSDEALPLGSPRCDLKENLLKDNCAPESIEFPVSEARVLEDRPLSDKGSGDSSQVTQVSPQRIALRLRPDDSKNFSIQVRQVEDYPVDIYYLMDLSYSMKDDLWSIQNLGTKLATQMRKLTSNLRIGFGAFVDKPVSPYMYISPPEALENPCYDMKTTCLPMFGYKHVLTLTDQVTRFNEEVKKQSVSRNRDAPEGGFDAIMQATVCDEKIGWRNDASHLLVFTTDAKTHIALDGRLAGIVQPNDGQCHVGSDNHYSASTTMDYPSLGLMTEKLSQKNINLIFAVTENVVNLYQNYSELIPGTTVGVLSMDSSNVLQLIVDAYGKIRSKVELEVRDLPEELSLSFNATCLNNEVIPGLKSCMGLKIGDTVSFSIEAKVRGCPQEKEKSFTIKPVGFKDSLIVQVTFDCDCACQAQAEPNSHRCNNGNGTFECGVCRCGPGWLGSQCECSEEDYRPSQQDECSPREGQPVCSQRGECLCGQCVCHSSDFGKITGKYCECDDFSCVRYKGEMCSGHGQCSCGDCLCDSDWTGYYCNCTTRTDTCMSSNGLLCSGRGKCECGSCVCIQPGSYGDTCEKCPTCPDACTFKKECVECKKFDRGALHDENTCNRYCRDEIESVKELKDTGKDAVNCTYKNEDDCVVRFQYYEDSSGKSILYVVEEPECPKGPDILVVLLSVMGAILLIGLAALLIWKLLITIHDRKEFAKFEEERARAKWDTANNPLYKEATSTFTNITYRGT
T1 sequence (P06756 31-889 limits assumed): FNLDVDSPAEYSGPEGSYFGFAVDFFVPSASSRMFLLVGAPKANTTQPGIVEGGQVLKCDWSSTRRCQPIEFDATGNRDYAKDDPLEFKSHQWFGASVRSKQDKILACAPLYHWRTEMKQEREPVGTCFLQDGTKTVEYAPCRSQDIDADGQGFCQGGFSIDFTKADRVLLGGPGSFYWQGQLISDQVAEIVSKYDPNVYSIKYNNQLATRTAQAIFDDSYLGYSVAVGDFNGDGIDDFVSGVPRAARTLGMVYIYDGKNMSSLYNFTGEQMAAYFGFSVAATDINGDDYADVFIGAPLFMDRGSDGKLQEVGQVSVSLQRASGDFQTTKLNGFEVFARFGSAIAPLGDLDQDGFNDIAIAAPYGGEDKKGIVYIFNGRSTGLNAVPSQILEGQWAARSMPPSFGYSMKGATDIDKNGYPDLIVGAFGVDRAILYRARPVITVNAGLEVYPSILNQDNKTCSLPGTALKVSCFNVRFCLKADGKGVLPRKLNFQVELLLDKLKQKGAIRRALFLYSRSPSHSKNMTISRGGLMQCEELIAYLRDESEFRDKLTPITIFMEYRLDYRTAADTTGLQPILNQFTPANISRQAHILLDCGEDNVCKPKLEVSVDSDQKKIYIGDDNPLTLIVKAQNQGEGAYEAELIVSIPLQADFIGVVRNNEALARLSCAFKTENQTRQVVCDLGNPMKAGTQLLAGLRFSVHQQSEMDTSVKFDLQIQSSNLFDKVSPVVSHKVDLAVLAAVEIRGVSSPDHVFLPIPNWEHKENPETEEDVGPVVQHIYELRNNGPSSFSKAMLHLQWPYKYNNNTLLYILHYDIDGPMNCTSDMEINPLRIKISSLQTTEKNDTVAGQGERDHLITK
T1 sequence (P06756 891-1048 limits assumed): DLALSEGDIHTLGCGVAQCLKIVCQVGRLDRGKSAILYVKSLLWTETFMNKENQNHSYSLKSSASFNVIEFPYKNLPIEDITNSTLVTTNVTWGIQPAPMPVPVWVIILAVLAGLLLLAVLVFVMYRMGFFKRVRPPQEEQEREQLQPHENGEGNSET

## CC(C)[C@@H]1/C=C/[C@@H](Cc2ccccc2)NC(=O)[C@H](CC(=O)O)NC(=O)CNC(=O)[C@H](CCCNC(=N)N)NC1=O
[1]
  IC50: 3.6 nM

## C/C1=C\[C@@H](Cc2ccccc2)NC(=O)[C@H](CC(=O)O)NC(=O)CNC(=O)[C@H](CCCNC(=N)N)NC(=O)[C@@H]1C(C)C
[1]
  IC50: 2.4 nM

## CC(C)[C@@H]1/C=C(\Cl)[C@@H](Cc2ccccc2)NC(=O)[C@H](CC(=O)O)NC(=O)CNC(=O)[C@H](CCCNC(=N)N)NC1=O
[2]
  Stability: Stable
[3]
  IC50: 0.497 nM
